Experimental data as given in patent publication US4379091A, “Esters of arylpropionic acids endowed with an anti-inflammatory activity” (priority 1980, dated 1983).

Columns and labels:
carrageenin edema [1] = test: carrageenin edema test in the rat (percent protection); assay type: in vivo, rat (Wistar); settings: for peak of activity (time) / time course of activity after the peak: carrageenin edema; for peak of activity (time) / time course of activity after the peak / Percent protection from the carrageenin edema: oral; for Percent protection from the carrageenin edema: detection after 4 hours, ibuprofen 100 mg/kg, MR-653 200 mg/kg (equimolar)
Experimental: 1 percent carrageenin in saline was given, at the rate of 0.1 ml subcutaneously, into the plantar area of the left paw.
The compounds were administered 1, 3 and 6 hours respectively before the carrageenin injection; the related values were always read 4 hours after the carrageenin injection, duly assessing the percent swelling of the paw versus the value at the time 0 (carrageenin inocula). The results are expressed as percent protection considering the swelling in the control group as equal to 100.

[2] = plasma kinetics of ibuprofen and MR-653 in the male rat
Text: The investigational drugs were given by oral gavage, suspended in 0.5 percent gum arabic; an analogous suspension was used in the case of the intraperitoneal administration.

[3] = test system: squirmings (acetylcholine); test: acetylcholine test: squirmings induced by acetylcholine; assay type: in vivo, mouse; settings: oral, one hour before acetylcholine, equimolar doses; 4 minutes observation
Experimental: Squirmings were induced by an intraperitoneal injection of acetylcholine ([…]; 0.5 ml per mouse); both compounds were given orally one hour before the administration of acetylcholine at the dose of 10 mg/kg, in equimolar doses. […] The results reported below were obtained in comparison with the control group: […]

carrageenin edema [4] = test: carrageenin edema test in the rat (percent protection); assay type: in vivo, rat (Wistar); settings: oral, ibuprofen 100 mg/kg, MR-653 200 mg/kg (equimolar)
[5] = test system: abdominal squirmings (phenylquinone); test: analgesic activity: abdominal squirmings induced by phenylquinone; assay type: in vivo; settings: oral, 100 mg/kg (equimolar doses), one hour before; 20 minutes observation
Experimental: Abdominal squirmings were induced by an intraperitoneal injection in saline, given at the dose of 4 mg/kg/20 ml.

gastric mucosa = test: gastric injuring effects; assay type: in vivo, Wistar rats
Experimental: The compounds were given intraperitoneally at the equimolar dose of 500 mg/kg. The animals were killed 5 hours after the treatment in order to assess the conditions of the gastric mucosa, and the possible presence of bleedings and ulcers.

mouse = test: acute toxicity, oral LD 50 in the mouse; assay type: in vivo; settings: versus the corresponding acid (ibuprofen for MR-653)
[6] = acute toxicity, oral LD 50 in the mouse; assay type: in vivo; settings: in vivo; mouse, oral
solubility = assay type: physicochemical
[7] = intraperitoneal, equimolar dose of 500 mg/kg, 5 hours after treatment

Compound	peak of activity (time) (carrageenin edema [1]; equimolar doses)	time course of activity after the peak (carrageenin edema [1]; equimolar doses)	Percent protection from the carrageenin edema (carrageenin edema [1])	protection versus control group (acetylcholine squirming) [3]	Percent protection from the carrageenin edema (carrageenin edema [4]; detection after 1 hour)	Percent protection from the carrageenin edema (carrageenin edema [4]; detection after 2 hours)	Percent protection from the carrageenin edema (carrageenin edema [4]; detection after 3 hours)	Percent protection from the carrageenin edema (carrageenin edema [4]; detection after 6 hours)	protection versus the control group (phenylquinone squirming) [5]	incidence of punctiform ulcer (gastric mucosa; [7])	further results
CC(C)Cc1ccc(C(C)C(=O)O)cc1 (stereo not drawn) [Ibuprofen, 2-(4-isobutyl-phenyl) propionic acid]	around the first hour	rapid and progressive decrease even starting from the second hour	24%	50%	60%	44%	28%	20%	20%	14%	time of peak of the plasma levels of ibuprofen ([2]; plasma kinetics, oral): at the first hour; AUC at 7 h ([2]; rat, in vivo, ip, 58.8 mg/kg): ~325 µg·h/mL; concentration at 0.5 h ([2]; rat, in vivo, ip, 58.8 mg/kg): 215000 ± 33400 ng/mL; concentration at 1 h ([2]; rat, in vivo, ip, 58.8 mg/kg): 105000 ± 12400 ng/mL; concentration at 2 h ([2]; rat, in vivo, ip, 58.8 mg/kg): 18300 ± 11000 ng/mL; concentration at 7 h ([2]; rat, in vivo, ip, 58.8 mg/kg): 6200 ± 2400 ng/mL; AUC at 7 h ([2]; rat, in vivo, po, 58.8 mg/kg): ~190 µg·h/mL; concentration at 1 h ([2]; rat, in vivo, po, 58.8 mg/kg): 71700 ± 23600 ng/mL; concentration at 2 h ([2]; rat, in vivo, po, 58.8 mg/kg): 32200 ± 7700 ng/mL; concentration at 5 h ([2]; rat, in vivo, po, 58.8 mg/kg): 12100 ± 22000 ng/mL; concentration at 7 h ([2]; rat, in vivo, po, 58.8 mg/kg): 9100 ± 1500 ng/mL; condition of stomach / peritoneum (gastric mucosa; rat, in vivo, ip, 500 mg/kg): almost normal mucosa with a fair quantity of a yellowish foamy secretion
CC(C)Cc1ccc(C(C)C(=O)OCCOCCOCCOCCO)cc1 (stereo not drawn) [MR-653, Monoester of 2-(4-isobutyl-phenyl)propionic acid with tetraethylene glycol]	around the first hour	markedly slower	44%	48%	64%	59%	47%	34%	20%	16%	anti-inflammatory activity higher than that of ibuprofen until the 6th hour (carrageenin edema [1]; equimolar doses, versus ibuprofen): 48%; toxicity compared with the corresponding acid (mouse): practically unchanged values of toxicity and gastric injuring effects; LD50 [6]: > 2000 mg/kg; solubility in organic solvents (solubility; methanol, diethyl ether, acetone and chloroform): soluble on the other hand in methanol, diethyl ether, acetone and chloroform; solubility in water (solubility; water): practically insoluble in water; condition of stomach / peritoneum (gastric mucosa; [7]): mildly hyperemic peritoneal exudate; gastric injuring effects compared with the corresponding acid (gastric mucosa; versus the corresponding acid (ibuprofen for MR-653)): practically unchanged values of toxicity and gastric injuring effects
